Each block holds one molecule with its values, some of them ahead of it.
Experiments:
[1] = target: T1, STK4 (Homo sapiens, UniProt Q13043); test: STK4 biochemical kinase inhibition
T1 sequence (Q13043 1-487): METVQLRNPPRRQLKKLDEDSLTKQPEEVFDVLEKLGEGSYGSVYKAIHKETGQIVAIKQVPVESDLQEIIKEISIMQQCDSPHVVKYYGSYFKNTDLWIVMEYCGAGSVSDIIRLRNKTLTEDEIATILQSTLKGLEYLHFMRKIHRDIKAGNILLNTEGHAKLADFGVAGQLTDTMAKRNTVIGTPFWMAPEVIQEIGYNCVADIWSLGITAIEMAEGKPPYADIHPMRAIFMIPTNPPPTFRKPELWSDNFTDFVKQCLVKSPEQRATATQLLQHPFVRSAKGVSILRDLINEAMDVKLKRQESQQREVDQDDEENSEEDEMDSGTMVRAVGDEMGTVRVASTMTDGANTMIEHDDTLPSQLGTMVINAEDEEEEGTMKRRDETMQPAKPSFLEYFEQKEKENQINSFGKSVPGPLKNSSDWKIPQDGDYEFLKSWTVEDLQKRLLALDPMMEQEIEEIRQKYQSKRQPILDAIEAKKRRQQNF

[2] = tested on: KMS-20 cell line, with YAP1 deletion; test: Cell growth in YAP1-deleted KMS-20; assay type: cell-based; details: KMS-20, YAP1 deleted
[3] = tested on: YAP1; test: YAP1 levels in MM cells after treatment; assay type: cell-based
Description: MM cells were harvested and lysed using lysis buffer: 50 mMTris-HCl (pH 7.4), 150 mM NaCl, 1% NP-40, 5 mM EDTA, 5 mM NaF, 2 mM Na3VO4, 1 mM PMSF, 5 μg/mL leupeptine, and 5 μg/mL aprotinin. Nuclear extracts were prepared using Nuclear Extraction Kit (Panomics). Cell lysates were subjected to sodium dodecyl sulfate-polyacrylamide gel electrophoresis SDS-PAGE, transferred to nitrocellulose membranes, and immunoblotted with different antibodies: ATM, phospho-ATM (Ser1981), ATR, phospho-ATR (Ser428), CHK2, phospho-CHK2 (Thr68), CHK1, phospho-CHK1 (Ser296), p21, p53, phospho-p53 (ser127), STK4, LATS1, phospho-LATS1 (Ser909), phospho-ABL1 (Thr735), cleaved caspase 3, cleaved PARP, histone H3, SAPK/JNK, phospho-SAPK/JNK (Thr183/Tyr185), GM130, GAPDH, and α-tubulin (Cell Signaling); STK4, Nuclear Matrix Protein p84 (Abeam), p73 (BD), phospho-H2A.X (Ser139) (Millipore); as well as ABL1, BAX, Puma, Noxa, actin and nucleolin (Santa Cruz Biotechnology).

[4] = tested on: MM cell lines; test: Cell growth in a large panel of MM cell lines; assay type: cell-based
[5] = tested on: ALL (Jurkat) and AML (OCI/AML3) cell lines; test: YAP1 levels, cell number and apoptosis in ALL and AML cell lines; assay type: cell-based
[6] = tested on: U266 MM cell line; test: Apoptosis by Annexin V-FITC/PI staining, U266; assay type: cell-based; details: 10 μM, untreated 10%
Description: (§1) In particular, cells were washed twice with room-temperature PBS, resuspended in 100 μL of Annexin binding buffer, and stained with specific antibodies for 20 minutes.

[7] = tested on: RL; test: MTT / Annexin V-PI, RL; assay type: cell-based; details: no nuclear ABL1
[8] = MTT viability assay, U266; assay type: cell-based; details: human, U266 multiple myeloma cells, 10 μM
Description: Viability of MM cells was evaluated by 3-[4,5-dimethylthiazol-2-yl]-2,5-diphenyltetrazolium bromide (MTT) colorimetric survival assay. MM cells (20,000-50,000) were plated in 100 μL medium. At the various time points (24-96 hours), 10 μL 5 mg/mL MTT were added to plated cells. After 4 hour incubation at 37° C., medium was discarded and 100 μL MTT stop solution (Isopropanonol with […] Hcl) used to dissolve MTT metabolic products. Absorbance was read at 570 nm and background was subtracted at 630 nm, using spectrophotometer SPECTRAMAX M2 machine and Softmax Pro v5 software. Cellular growth was estimated by cell counting in triplicates, excluding dead cells stained by trypan blue.

[9] = tested on: HL-60; test: MTT / Annexin V-PI, HL-60; assay type: cell-based; details: HL-60, YAP1 basal expression
[10] = tested on: leukemia and lymphoma cell lines; test: MTT growth inhibition and Annexin V-PI apoptosis in a leukemia and lymphoma cell line panel; assay type: cell-based; details: cell lines where the DNA damage-ABL1-YAP1 axis was activated
[11] = tested on: MM.1S cells; test: Apoptosis by Annexin V-FITC/PI staining, MM.1S; assay type: cell-based, human; details: 10 μM, untreated 11%
Description: as §1

IC50 [1]: 12 nM
Compound: NS(=O)(=O)c1ccc(N/N=C2\C(=O)Nc3ccc4ncccc4c32)cc1 [GW305178X]
activity against KMS-20 [2]: not active
YAP1 levels after treatment ([3]; MM cells): robust increase in YAP1 levels
effect on cell growth / proliferation in MM cell lines [4]: reduced proliferation in most cell lines with low YAP1 levels
YAP1 levels, cell number and apoptosis [5]: increased YAP1 levels, reduced cell number, and enhanced apoptosis

Compound: COc1cc(Nc2c(C#N)cnc3cc(OCCCN4CCN(C)CC4)c(OC)cc23)c(Cl)cc1Cl [SKI-606]
apoptosis (Annexin V-PI) [6]: 58%
response to treatment [7]: did not respond to the treatment
viability at 24 h, 10 µM ([8]; 24 h, read-out: 24 hour viability (MTT, normalized to DMSO)): 93.8%
viability at 48 h, 10 µM ([8]; 48 h, read-out: 48 hour viability (MTT, normalized to DMSO)): 76.1%
viability at 72 h, 10 µM ([8]; 72 h, read-out: 72 hour viability (MTT, normalized to DMSO)): 53.8%
viability at 96 h, 10 µM ([8]; 96 h, read-out: 96 hour viability (MTT, normalized to DMSO)): 28.5%
response to treatment [9]: did not respond to the treatment
YAP1 expression after treatment ([3]; MM.1S and U266, 10 μM): significant increase of YAP1 expression
cellular proliferation and survival [10]: profoundly reduced
apoptosis (Annexin V-FITC/PI) [11]: 76%
